Reference: patent publication US11845770B2, “Ascaroside derivatives and methods of use” (California Institute of Technology, priority 2019, dated 2023)
One block for each compound: values may come before it.

Tests used:
[1] = test system: BEAS-2B human lung epithelial cells; assay: Stimulation of BEAS-2B human lung epithelial cells, cytokine expression; format: cell-based; conditions: 48 h
Description: BEAS-2B cells were maintained in Bronchial Epithelial Cell Growth Basal Medium (BEBM) containing all the recommended supplements for the Bronchial Epithelial Cell Growth Medium (BEGM; Lonza #CC-4175) and allowed to attain approximately 70% confluency with media changed every 2-3 days at 37° C. with 5% (v/v) CO2. Tissue culture flasks/vessels were pre-coated with a mixture of 0.01 mg/mL fibronectin (Sigma), 0.03 mg/ml bovine collagen type I (Sigma) and 0.01 mg/mL bovine serum albumin dissolved in the BEBM. BEAS-2B cells were seeded with 0.5 ml of 1×10^6 cells/mL in BEGM per well on 24-well plates and incubated overnight at 37° C. with 5% (v/v) CO2. The cells are pre-treated with different concentrations of compounds (0, 1.0, 10, 100, 1000 μM) for 1 hour prior to stimulation. To stimulate the cells, 10 ng/mL of Interleukin-1 beta (IL-1β), 10 ng/mL of Lipopolysaccharides (LPS), or 20 ng/mL of IL-1$ is added to the wells without removing the media and incubated for 48 hours at 37° C. with 5% (v/v) CO2. Supernatants were collected and stored at −80° C. until quantitative detection assays are performed. Human Eotaxin, Monocyte Chemoattractant Protein-1 (MCP-1), Interleukin-6 (IL-6), Interleukin-25 (IL-25), Interleukin-33 (IL-33), Thymic stromal lymphopoietin (TSLP), and Granulocyte-Macrophage Colony-Stimulating Factor (GM-CSF) released from supernatants collected post stimulation were measured using Human Magnetic Luminex® Assay Kit. Human CCL5/RANTES was measured using an Enzyme-Linked Immunosorbent Assay (ELISA)-based analysis.

[2] = Stability in hepatocytes (human); format: in vitro ADME; conditions: cryopreserved human hepatocytes (suspension)
Description: (§1) 10 mM of 1 was provided as a 1000× stock solution in dimethylsulfoxide (DMSO), and the stock solution was diluted to 1 mM with DMSO in 96-well plates. 30 mM of positive compounds (7-ethoxycoumarin and 7-hydroxycoumarin) were provided as a 1000× stock solution in DMSO, and the stock solution was diluted to 3 mM with DMSO in 96-well plates. 20 μL of 1000× stock solution of each compound were pipetted and was mixed with 380 μL of 45% MeOH/H2O to obtain 50 μM of 1 and 150 μM of the positive control compound solutions to form 50× intermediate solutions. 20 μL of 50× intermediate solution of each compound were pipetted and was mixed with […] of pre-warmed incubation medium to obtain 5 μM of 1 and 15 μM of the positive control compound solutions to form 5× working solutions. The incubation medium was Williams' Medium E (no phenol red) containing 2 mM L-glutamine and 25 mM HEPES. 10 μL of 5× working solutions of each compound were pipetted into appropriate wells in a 96-well plate for time points of 0 minutes, 15 minutes, 30 minutes, 60 minutes, and 90 minutes in duplicates. The plates with compounds were kept warm in an incubator at 37° C.
(§2) A cell suspension was prepared by thawing cryopreserved cells, isolating the cells, and suspending the cells in thawing medium. […]
(§3) The remaining percentage of 1 after incubation was calculated according to the following equation. […]

[3] = Stability in hepatocytes (rat); format: in vitro ADME; conditions: cryopreserved rat hepatocytes (suspension)
Description: as §1, §2, §3

CYP2C9 = biological target: T1, CYP2C9 (Homo sapiens, UniProt P11712); assay: 5 in 1 CYP inhibition assay, CYP2C9; format: in vitro ADME; conditions: microsomes, probe diclofenac (4′-hydroxylation), test compound 10 μM, n=2, read-out: inhibition of cytochrome P450 isoform 2C9
T1 construct: from tissue
Description: CYP450 dependent activities were determined using a marker substrate cocktail. For each reaction, enzyme activities in the presence and absence of test compound (10 μM) were measured in duplicate. A known inhibitor for each isoform, tested at a single concentration (3 μM, n=2), was included as positive control. Incubation mixtures containing microsomes, substrate, and standard inhibitor or test compound were warmed at 37° C. for 10 minutes. Reactions were initiated by addition of the NADPH and incubated for 10 min. [table] After incubation, ice cold acetonitrile was added to terminate the reaction. Generation of metabolites from the substrate reactions was determined by LC-MS/MS.

[4] = 10 ng/mL IL-1β, compound concentration series, FIG. 10A
[5] = 10 ng/mL IL-1β, compound concentration series, FIG. 10B
[6] = at 100 μM, 10 ng/mL IL-1β, FIG. 10A
[7] = at 100 μM, 10 ng/mL IL-1β, FIG. 10B
[8] = 10 ng/mL LPS, compound concentration series, FIG. 11A
[9] = 10 ng/mL LPS, compound concentration series, FIG. 11B

T1 sequence (P11712 whole entry, canonical isoform): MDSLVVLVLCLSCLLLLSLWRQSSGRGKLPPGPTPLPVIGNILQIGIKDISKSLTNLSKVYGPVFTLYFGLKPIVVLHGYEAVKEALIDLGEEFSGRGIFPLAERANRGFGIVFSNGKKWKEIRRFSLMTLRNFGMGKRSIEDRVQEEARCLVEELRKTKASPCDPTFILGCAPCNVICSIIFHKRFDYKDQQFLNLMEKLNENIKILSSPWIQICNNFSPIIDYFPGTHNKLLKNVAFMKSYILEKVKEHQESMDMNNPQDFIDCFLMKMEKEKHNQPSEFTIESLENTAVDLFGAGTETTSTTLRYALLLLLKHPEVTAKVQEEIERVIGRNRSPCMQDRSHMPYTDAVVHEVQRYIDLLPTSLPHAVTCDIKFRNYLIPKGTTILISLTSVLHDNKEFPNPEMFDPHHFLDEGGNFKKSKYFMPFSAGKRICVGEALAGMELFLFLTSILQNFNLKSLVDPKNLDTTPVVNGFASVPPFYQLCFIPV

half-life at 1 µM [2]: 1.77 h | half-life at 1 µM [3]: 0.385 h | inhibition at 10 min, 10 µM (CYP2C9): 4.3%
SMILES: C[C@H](CC/C=C/C(=O)OC(C)(C)C)O[C@@H]1O[C@@H](C)[C@H](O)C[C@H]1O [Compound 1, tert-butyl (2E,6R)-6-{[(2R,3R,5R,6S)-3,5-dihydroxy-6-methyloxan-2-yl]oxy}hept-2-enoate]
percent inhibition relative to Stimulated of IL-25 expression [1, 4]: statistically significant, dose-dependent inhibition | percent inhibition relative to Stimulated of Eotaxin expression [1, 5]: statistically significant, dose-dependent inhibition | percent inhibition relative to Stimulated of IL-6 expression [1, 6]: statistically significant, complete inhibition | percent inhibition relative to Stimulated of IL-8 expression [1, 6]: statistically significant, complete inhibition | percent inhibition relative to Stimulated of IL-25 expression [1, 6]: statistically significant, complete inhibition | percent inhibition relative to Stimulated of IL-33 expression [1, 6]: statistically significant, complete inhibition | percent inhibition relative to Stimulated of GM-CSF expression [1, 7]: statistically significant, complete inhibition | percent inhibition relative to Stimulated of MCP-1 expression [1, 7]: statistically significant, complete inhibition | percent inhibition relative to Stimulated of TSLP expression [1, 7]: statistically significant, complete inhibition | inhibition of expression of multiple inflammatory cytokines (IL-6, IL-8, IL-25, IL-33) ([1]; at 100 μM, 10 ng/mL LPS, FIG. 11A): complete, statistically significant inhibition | inhibition of expression of multiple inflammatory cytokines (GMCSF, MCP-1, TSLP) ([1]; at 100 μM, 10 ng/mL LPS, FIG. 11B): statistically significant, complete inhibition

half-life at 1 µM [2]: > 3.61 h | half-life at 1 µM [3]: > 3.61 h | inhibition at 10 min, 10 µM (CYP2C9): 0%
SMILES: C[C@H](CC/C=C/C(=O)O)O[C@@H]1O[C@@H](C)[C@H](O)C[C@H]1O [ascr #7, reference compound]
percent inhibition relative to Stimulated of IL-6 expression [1, 4]: did not show convincing inhibition | percent inhibition relative to Stimulated of IL-8 expression [1, 4]: did not show convincing inhibition | percent inhibition relative to Stimulated of IL-25 expression [1, 4]: statistically significant, dose-dependent inhibition | percent inhibition relative to Stimulated of IL-33 expression [1, 4]: did not show convincing inhibition | percent inhibition relative to Stimulated of Eotaxin expression [1, 5]: statistically significant, dose-dependent inhibition | percent inhibition relative to Stimulated of GM-CSF expression [1, 5]: did not demonstrate convincing inhibition | percent inhibition relative to Stimulated of MCP-1 expression [1, 5]: did not demonstrate convincing inhibition | percent inhibition relative to Stimulated of TSLP expression [1, 5]: did not demonstrate convincing inhibition | percent inhibition relative to Stimulated of IL-6 expression [1, 8]: did not show convincing inhibition | percent inhibition relative to Stimulated of IL-8 expression [1, 8]: did not show convincing inhibition | percent inhibition relative to Stimulated of IL-25 expression [1, 8]: did not show convincing inhibition | percent inhibition relative to Stimulated of IL-33 expression [1, 8]: did not show convincing inhibition | percent inhibition relative to Stimulated of GM-CSF expression [1, 9]: did not show convincing inhibition | percent inhibition relative to Stimulated of MCP-1 expression [1, 9]: did not show convincing inhibition | percent inhibition relative to Stimulated of TSLP expression [1, 9]: did not show convincing inhibition | percent inhibition relative to Stimulated of IL-25 expression ([1]; 20 ng/mL IL-1β, compound concentration series, FIG. 12): statistically significant, dose-dependent blocking | percent inhibition relative to Stimulated of Eotaxin expression ([1]; at 10 and 100 μM, 20 ng/mL IL-1β, FIG. 13): statistically significant, almost complete blocking
